Publication PMC6269819, “Evaluation of the Biological Activity of Naturally Occurring 5,8-Dihydroxycoumarin” (Molecules, 2013)
Several values for one entry are separate records, joined by “and”; a condition that tells them apart may be missing. Equal entries are not always repeated. Marks after values point to notes of the source that are not given here.

Assays:
[1] = Signs of systemic toxicity and mortality in treated rats
[2] = tested on: Wistar rat bone marrow cells; test: Chromosome aberration in vivo assay in rat bone marrow
Excerpt: (§1) Male albino Wistar rats aged 8–10 weeks and having body weight of 200–220 g, were used in the present study. The animals were supplied by the Animal Facility of the Department of Immunology, State Research Institute Center for Innovative Medicine. Ethical approval was given by the Committee of the Lithuanian Animal Care and Use. Prior to the start of the study, the animals were acclimatized for 7 days. They were housed under conditions of constant temperature, humidity and a light/dark cycle of 12 h/12 h with free access to standard commercial pellet diet and drinking water. The animals were randomly distributed into 11 experimental groups of six rats each.
(§2) We used a mixture of dimethylsulfoxide (DMSO) and sunflower oil (1:2) as the vehicle for 5,8-DHC (5,8-DHC was dissolved in DMSO and adjusted to the desired dose with sunflower oil immediately before administration). For the acute treatment, the animals received single intraperitoneal (i.p.) injections of 10 or 20 mg/kg of 5,8-DHC in 1 mL volume per 100 g body weight (b.w.). The negative control group comprised animals, given a single i.p. injection of vehicle (1 mL/100 g b.w.) and the positive control group, given cyclophosphamide (CP, 30 mg/kg adjusted in 0.5 mL/100 g b.w. in sterile physiological saline). A commercial form of cyclophosphamide was used (‘Endoxan’, ASTA Medica AG, Frankfurt, Germany). Blank controls comprised untreated animals. For the repeated treatment, 5,8-DHC (10 or 20 mg/kg) or vehicle was administered via gavage (1 mL/100 g b.w.) once a day for 3 consecutive days. Animals were sacrificed 24 h or 48 h after the last dose administration. Colchicine was applied i.p. at a dose of 2 mg/kg b.w. in 1 mL volume 90 min before sacrifice. Both femurs were dissected from each animal and used to obtain bone marrow preparations for the analysis of chromosome aberrations and micronucleus.
Bone marrow cells were flushed from the femora with 0.55% potassium chloride hypotonic solution, incubated for 25 min at 37 °C and then centrifuged at 150 × g for 8 min. Cells were fixed in methanol-glacial acetic acid (3:1). Slides were prepared by a flame-drying procedure and then stained with 5% Giemsa stain. Slides were coded and scored blind by the single scorer at a magnification of 1500× (Nikon ECLIPSE E200, Tokyo, Japan). Only well-spread metaphases with 42 ± 1 chromosomes were used for the analysis. The frequencies of CAs were estimated in 100 metaphases per animal. Aberrations were recorded as individual types according to J.R. Savage’s classification but for convenience were grouped as chromatid breaks (ctb), chromatid exchanges (cte), chromosome breaks (csb) and chromosome exchanges (cse). Gaps were counted but not included into statistical analysis.

[3] = tested on: Wistar rat bone marrow cells; test: Micronucleus in vivo assay in rat bone marrow
Excerpt: as §1, §2
The bone marrow MN assay was conducted according to the standard procedure. Ends of the femura were cut off and the bone marrow was washed out with 2 mL of heat-inactivated foetal calf serum (Biochrom AG, Berlin, Germany), mixed thoroughly to obtain a fine suspension and centrifuged for 5 min at 150 × g. The supernatant was discarded and the cell pellet was carefully re-suspended. At least two smears per animal were prepared and allowed to air dry prior to fixation with methanol. The slides were stained in May-Grünwald solution followed by Giemsa (both Merck), coded and scored blind by the same scorer under magnification of 1000× (Jenaval, Zeiss, Jena, Germany). Micronucleated polychromatic erythrocyte (MNPCE) frequencies were based on the observation of 2,000 immature polychromatic erythrocytes (PCEs). Bone marrow toxicity was monitored by a decrease of PCE to total erythrocytes (e.g., PCEs+NCEs, normochromatic erythrocytes). At least 1,000 bone marrow erythrocytes per animal were analysed.

[4] = ABTS•+ radical cation decolorization assay; details: 16 min reaction
Method: The experiments were carried out using a slightly modified 2,2’-azinobis (3-ethylbenzothiazoline-6-sulfonic acid) diammonium salt (ABTS, Sigma-Aldrich Chemie, Steinheim, Germany) decolorization assay. Stock solution of ABTS (2 mM) was prepared by dissolving in 50 mL of phosphate buffered saline (PBS) obtained by dissolving 0.27 g of KH2PO4 (Jansen Chimica, Beerse, Belgium), 1.42 g of Na2HPO4, 8.18 g of NaCl, and 0.15 g of KCl (Merck, Darmstadt, Germany) in 1 L of distilled water. The pH was adjusted to 7.4 using NaOH solution. The ABTS^•+ was produced by reacting 50 mL of ABTS stock solution with 200 μL of K2S2O8 solution. The ABTS^•+ solution was diluted with PBS before measurements to obtain the absorbance of 0.800 ± 0.030 at 734 nm. 5,8-DHC was dissolved in PBS at the concentrations of 0.0025, 0.005, 0.01, 0.025 and 0.05% before the reaction. A 3 mL aliquot of ABTS^•+ solution was mixed with 30 μL of 5,8-DHC solution in the 1 cm path length quartz cuvette. The absorbance was read at ambient temperature after 16 min. PBS solution was used as a blank. All determinations were carried out in triplicate. Radical scavenging capacity was expressed as in DPPH^• scavenging assay.

[5] = repeated gavage 3 × 10 mg/kg b.w., sacrifice 48 h
[6] = repeated gavage 3 × 20 mg/kg b.w., sacrifice 48 h
[7] = single i.p. 10 mg/kg b.w., sacrifice 24 h
[8] = single i.p. 10 mg/kg b.w., sacrifice 48 h
[9] = single i.p. 20 mg/kg b.w., sacrifice 24 h
[10] = single i.p. 20 mg/kg b.w., sacrifice 48 h

O=c1ccc2c(O)ccc(O)c2o1 [5,8-DHC, 5,8-Dihydroxycoumarin]
signs of systemic toxicity ([1]; 20 mg/kg b.w., at 2–3 h after dose administration): sluggishness was observed in all rats | time to death after administration ([1]; i.p. injection 100 mg/kg): 3 to 4 h | toxicity and mortality ([1]; i.p. injection 100 mg/kg): sluggishness and death of all treated animals | signs of systemic toxicity ([1]; repeated treatment with 10 mg/kg b.w., since second dose administration): sluggishness | increase of CAs compared with vehicle controls ([2]; all 5,8-DHC treated animals): No increase of CAs | Aberrant metaphases (%± S.E.M.) [2, 5]: 1.17 ± 0.17% | Aberrant metaphases (%± S.E.M.) [2, 6]: 2.43 ± 0.37% | Aberrant metaphases (%± S.E.M.) [2, 7]: 2.33 ± 0.49% | Aberrant metaphases (%± S.E.M.) [2, 8]: 1.67 ± 0.56% | Aberrant metaphases (%± S.E.M.) [2, 9]: 1.00 ± 0.36% | Aberrant metaphases (%± S.E.M.) [2, 10]: 2.60 ± 0.68% | cytotoxicity (decline of the proportion of PCEs to total erythrocytes) ([3]; rat, in vivo): no signs of 5,8-DHC cytotoxicity | effect on the frequency of MNPCEs ([3]; repeated gavage): no obvious effect | MNPCE (%± S.E.M.) [3, 5]: 0.24 ± 0.05% | PCE (%± S.E.M.) [3, 5]: 31.7 ± 4.0% | MNPCE (%± S.E.M.) [3, 6]: 0.23 ± 0.05% | PCE (%± S.E.M.) [3, 6]: 45.5 ± 3.5% | MNPCE (%± S.E.M.) [3, 7]: 0.56 ± 0.08 ^a % | PCE (%± S.E.M.) [3, 7]: 32.1 ± 1.9% | MNPCE (%± S.E.M.) [3, 8]: 0.30 ± 0.06% | PCE (%± S.E.M.) [3, 8]: 31.8 ± 5.6% | PCE (%± S.E.M.) [3, 9]: 36.6 ± 2.8% | MNPCE (%± S.E.M.) ([3]; single i.p. 20 mg/kg b.w., sacrifice 24 h, 20 mg/kg): 0.63% and 0.63 ± 0.04 ^a % | PCE (%± S.E.M.) [3, 10]: 26.6 ± 5.0% | MNPCE (%± S.E.M.) ([3]; single i.p. 20 mg/kg b.w., sacrifice 48 h, 20 mg/kg): 0.59% and 0.59 ± 0.14^a % | IC50 in ABTS•+ reaction [4]: 0.028%
